Measured values published in publication PMC8286840, “Identifying SARS-CoV-2 antiviral compounds by screening for small molecule inhibitors of Nsp3 papain-like protease” (Biochemical Journal, 2021).
Counter-ions that a name gives are not always drawn. Like-named read-outs stand apart in the source and are kept apart here.

Columns and labels:
[1] = biological target: T1, SARS-CoV-2 PLpro (nsp3 1564–1878) (Severe acute respiratory syndrome coronavirus 2, UniProt P0DTD1); test: biochemical; set-up: FRET-quenched peptide (Pro3) cleavage by PLpro, 10 min pre-incubation, slope over 20 min, normalised to no-compound control; conditions: low concentration screen, read-out: % of control remaining
[2] = biological target: T1, SARS-CoV-2 PLpro (nsp3 1564–1878); test: biochemical; set-up: FRET-quenched peptide (Pro3) cleavage by PLpro, 10 min pre-incubation, slope over 20 min, normalised to no-compound control; conditions: high concentration screen, read-out: % of control remaining

COc1ccccc1Oc1c(NS(=O)(=O)c2ccc(C(C)(C)C)cc2)nc(-c2ncccn2)nc1OCCO [Bosentan (hydrate)]
remaining activity at 1.25 µM ([1]; Well no.=6461): 102%
remaining activity at 3.75 µM ([2]; Well no.=6461): 101%

OC[C@H]1OC(O)[C@@H](O)[C@@H](O)[C@@H]1O (stereo partly drawn) [D-Mannose]
remaining activity at 1.25 µM ([1]; Well no.=7407): 103%
remaining activity at 3.75 µM ([2]; Well no.=7407): 102%

CC(C)n1cnc2c(NCCc3ccc(O)cc3)nc(-c3csc4ccccc34)nc21 [StemRegenin 1]
remaining activity at 1.25 µM ([1]; Well no.=4827): 101%
remaining activity at 3.75 µM ([2]; Well no.=4827): 98.2%

C[C@]12CC[C@H](O)CC1=CC[C@@H]1[C@@H]2CC[C@]2(C)C(n3cnc4ccccc43)=CC[C@@H]12 [Galeterone (TOK-001)]
remaining activity at 1.25 µM ([1]; Well no.=5127): 97.5%
remaining activity at 3.75 µM ([2]; Well no.=5127): 99.7%

O=CC[C@@H](O)[C@H](O)[C@H](O)CO [2-Deoxy-D-glucose]
remaining activity at 1.25 µM ([1]; Well no.=8302): 100%
remaining activity at 3.75 µM ([2]; Well no.=8302): 101%

Cc1cc(O)c2c(=O)c3c(O)cc(O)c4c5c(O)cc(O)c6c(=O)c7c(O)cc(C)c8c1c2c(c34)c(c78)c65 [Hypericin]
remaining activity at 1.25 µM ([1]; Well no.=520): 109%
remaining activity at 1.25 µM ([1]; Well no.=3725): 96.4%
remaining activity at 3.75 µM ([2]; Well no.=520): 109%
remaining activity at 3.75 µM ([2]; Well no.=3725): 97.9%

O=C(O)CCc1ccc(NCc2cccc(Oc3ccccc3)c2)cc1 [GW9508]
remaining activity at 1.25 µM ([1]; Well no.=5182): 103%
remaining activity at 1.25 µM ([1]; Well no.=8531): 97.9%
remaining activity at 3.75 µM ([2]; Well no.=5182): 99.8%
remaining activity at 3.75 µM ([2]; Well no.=8531): 98.8%

CC/C=C\C/C=C\C/C=C\CCCCCCCC(=O)O [Linolenic acid]
remaining activity at 1.25 µM ([1]; Well no.=4305): 103%
remaining activity at 1.25 µM ([1]; Well no.=4358): 101%
remaining activity at 3.75 µM ([2]; Well no.=4305): 102%
remaining activity at 3.75 µM ([2]; Well no.=4358): 100%

CC[C@H](C)C[C@H](C)CCCCCCCCC(=O)N[C@H]1C[C@@H](O)[C@@H](NCCN)NC(=O)[C@@H]2[C@@H](O)CCN2C(=O)[C@H]([C@H](O)CCN)NC(=O)[C@H]([C@H](O)[C@@H](O)c2ccc(O)cc2)NC(=O)[C@@H]2C[C@@H](O)CN2C(=O)[C@H]([C@@H](C)O)NC1=O [Caspofungin Acetate]
remaining activity at 1.25 µM ([1]; Well no.=5317): 99.9%
remaining activity at 3.75 µM ([2]; Well no.=5317): 95.7%

c1cnc(N2CCN(Cc3ccc4c(c3)OCO4)CC2)nc1 [Piribedil maleate]
remaining activity at 1.25 µM ([1]; Well no.=1163): 96.1%
remaining activity at 3.75 µM ([2]; Well no.=1163): 96.2%

CCNC(=O)[C@@H]1CCCN1C(=O)[C@H](CCCNC(=N)N)NC(=O)[C@H](CC(C)C)NC(=O)[C@@H](COC(C)(C)C)NC(=O)[C@H](Cc1ccc(O)cc1)NC(=O)[C@H](CO)NC(=O)[C@H](Cc1c[nH]c2ccccc12)NC(=O)[C@H](Cc1cnc[nH]1)NC(=O)[C@@H]1CCC(=O)N1 [Buserelin (Acetate)]
remaining activity at 1.25 µM ([1]; Well no.=8151): 106%
remaining activity at 3.75 µM ([2]; Well no.=8151): 104%

O=c1[nH]c2ccccc2c2ccccc12 [6(5H)-Phenanthridinone]
remaining activity at 1.25 µM ([1]; Well no.=1305): 104%
remaining activity at 3.75 µM ([2]; Well no.=1305): 107%

NCCc1c[nH]c2ccc(O)cc12 [Serotonin hydrochloride]
remaining activity at 1.25 µM ([1]; Well no.=616): 98.2%
remaining activity at 3.75 µM ([2]; Well no.=616): 100%

NC(N)=NCCC[C@H](N)C(=O)NCC(=O)N[C@@H](CC(=O)O)C(=O)N[C@@H](CO)C(=O)O [Arg-Gly-Asp-Ser]
remaining activity at 1.25 µM ([1]; Well no.=7938): 95.5%
remaining activity at 3.75 µM ([2]; Well no.=7938): 95.3%

CC(C)(C)NC(=O)[C@H]1CC[C@H]2[C@@H]3CC[C@H]4NC(=O)C=C[C@]4(C)[C@H]3CC[C@]12C [Finasteride]
remaining activity at 1.25 µM ([1]; Well no.=2086): 99%
remaining activity at 3.75 µM ([2]; Well no.=2086): 104%
